Test results reported in patent publication US12428433B2, “Fluorine-containing heterocyclic derivatives with macrocyclic structure and use thereof” (ScinnoHub Pharmaceutical Co., Ltd, priority 2019, dated 2025).

What was measured:
TRKC(G623R) = TRKC(G623R) (Homo sapiens (Human), UniProt Q16288, G623R); assay: Kinase inhibitory activity (Caliper mobility shift), TRKC(G623R); assay type: biochemical
Procedure: Sundia Meditech (Shanghai) Co., Ltd. was commissioned to complete the testing example.
3.1 A tested compound was accurately weighed and dissolved in 100% DMSO to prepare into a 10 mM solution.
250 nL of the compound of 100 times final concentration was transferred to a reaction plate OptiPlate-384F by a dispenser Echo 550.
3.2.3 A kinase solution of 2.5 times final concentration was prepared with 1×kinase buffer.
3.2.4 10 μL of kinase solution of 2.5 times final concentration was added into a compound well and a positive control well respectively; and 10 μL of 1×kinase buffer was added into a negative control well.
3.2.5 The reaction plate was shaken and mixed evenly, and then incubated at room temperature for 10 minutes.
3.2.6 Mixed solutions of ATP and kinase substrate 22 of 5 times and 3 times final concentrations were prepared with 1×kinase buffer.
3.2.7 15 μL of mixed solution of ATP and substrate of 5 times or 3 times final concentration was added.
3.2.8 The 384-well plate was centrifuged at 1,000 rpm for 30 seconds, shaken and mixed evenly, and then incubated at room temperature for corresponding time.
3.2.9 The kinase reaction was terminated.
3.2.10 A conversion rate was read by the microplate reader Caliper EZ Reader.
Calculation Formula Inhibition rate %=(conversion rate % maximum−conversion rate % sample)/(conversion rate % maximum−conversion rate % minimum)×100
wherein the conversion rate % sample was: a reading number of a conversion rate of a sample; the conversion rate % minimum was: an average value of the negative control well, which represented a reading number of a conversion rate without an enzyme activity well; and the conversion rate % maximum was: an average value of a ratio of the positive control well, which represented a reading number of a conversion rate without a compound inhibition well.
Fitting of dose-effect curve: a log value of concentration was used as an X axis, a percentage inhibition rate was used as a Y axis, and the dose-effect curve was fitted by a log (inhibitor) vs. response-variable slope of the analysis software GraphPad Prism 5 (four-parameter model fitting), so as to obtain an IC50 value of each compound on enzyme activity.

[1] = Stability test in liver microsomes, rat; assay type: in vitro ADME; details: for half-life at 1 μM: 0.5 mg/mL
Procedure: A stability of the compound of the present application in liver microsomes of human, rat and mouse was measured.
3.1 A buffer and a liver microsome were prepared into an incubation solution according to the following table:
3.2 The following two experiments were carried out respectively: a) incubation system added with coenzyme factor NADPH: 25 μL of NADPH (10 mM) was added into an incubation solution (mainly comprising a liver microsome and a phosphate buffer), so that final concentrations of the liver microsome and the NADPH were 0.5 mg/mL and […] respectively; and b) incubation system without coenzyme factor NADPH: 25 μL of phosphate buffer (100 mM) was added into the incubation solution, so that the final concentration of the liver microsome was 0.5 mg/mL. The incubation systems above were preheated at 37° C. for 10 minutes respectively.
3.3 2.5 μL of positive control compound or a tested compound solution (100 μM) was added into the incubation systems described in “step 3.2” above respectively for reaction, and the positive control compound was verapamil (purchased from Sigma), so that a final concentration of the tested compound of the present application or the positive control compound was 1 μM. The incubation solution added with the compound was incubated in water at 37° C. in batches.
3.4 30 μL of aliquot was taken from a reaction solution after 0.5 minute, 5 minutes, 15 minutes, 30 minutes and 45 minutes respectively, and the reaction was terminated by adding 5 times volume of cold acetonitrile containing 200 nM caffeine and 100 nM tolbutamide. The aliquot was centrifuged at a gravity acceleration of 3,220 g for 40 minutes, and 100 μL of supernatant was mixed with 100 μL of ultrapure water, and then used for LC-MS/MS analysis.
A peak area was determined by an extracted ion chromatogram. A slope value k was determined by linear regression of a remaining percentage of a parent drug relative to […] an incubation time curve.
In-vitro half-life periods (t1/2) were respectively calculated and determined according to the slope value, and an average value of the in-vitro half-life periods was converted into an in-vitro intrinsic clearance rate (CLint, represented by μL/min/mg protein).

Ba/F3-LMNA-NTRK1 = assay: In-vitro cell viability (CellTiter-Glo), BaF3 cell lines; assay type: cell-based; details: Mus musculus, 72 hours
Procedure: (§1) Hefei Precedo Biomedical Technology Co., Ltd. was commissioned to complete the testing example, and the cell lines used were constructed by this company.
(§2) In-vitro anti-proliferative effects of the compound of the present application on 6 BaF3 cell lines were measured.
(§3) 6 Ba/F3 cell lines were cultured with RPMI 1640 (Biological Industries, Israel)+10% fetal calf serum (Biological Industries, Israel)+1% double antibiotics (Penicillin Streptomycin solution, Coring, USA), and cells were cultured for two generations after resuscitation, to be tested.
(§4) The to-be-tested compound was prepared into 10 mM mother solution with DMSO, and then diluted to 1 mM with DMSO. The solution was diluted by 3 times to prepare into 1.0000 mM, 0.3333 mM, 0.1111 mM, 0.03704 mM, 0.01235 mM, 0.00412 mM, 0.00137 mM, 0.00046 mM, 0.00015 mM, and […], and stored in a 96-well drug plate (Beaver, Suzhou), with 10 concentration gradients in total. Meanwhile, an equal volume of DMSO solvent was used as a negative control.
(§5) The prepared 1,000× compounds of 10 concentration gradients were respectively diluted by 50 times into 20× compounds with complete medium, and stored in a 96-well drug plate (Beaver, Suzhou), with 10 concentration gradients in total. Meanwhile, an equal volume of DMSO solvent was used as a negative control.
(§6) Cell suspension in logarithmic growth phase was inoculated on a 96-well white cell culture plate (Corning 3917, NY, USA), and a volume of each well was 95 μl (about 2000 cells/well).
(§7) 5 μl of 20× to-be-tested compounds were respectively added into the culture plate containing 95 μl of cell suspension above, and mixed evenly, with 2 wells for each concentration gradient. Final concentrations of the to-be-tested compounds were 1.0000 μM, 0.3333 μM, 0.1111 μM, 0.03704 μM, 0.01235 μM, 0.00412 μM, 0.00137 μM, 0.00046 μM, 0.00015 μM, and […] respectively.
(§8) Incubation was carried out in an incubator at 37° C. under 5% CO2 for 72 hours.
(§9) The following steps were carried out according to the instruction of Promega CellTiter-Glo Luminescence Cell Viability Assay Kit (Promega-G7573).
(§10) A corresponding […] value RLU of each well was obtained through reading by SpectraMax Paradigm. Cell viability data was processed by the following formula:
(§11) Cell viability(%)=(RLUDrug−RLUMin)/(RLUMax−RLUMin)*100%. Cell viabilities of compounds of different concentrations were calculated in EXCEL, then cell viability curves were made by GraphPad Prism software, and related parameters were calculated. The parameters comprised a maximum cell viability, a minimum cell viability, and an IC50 value.

Ba/F3-TEL-NTRK3 = assay: as above; assay type: cell-based; details: Mus musculus, 72 hours
Procedure: as §1, §2, §3, §4, §5, §6, §7, §8, §9, §10, §11

Sequence of TRKC(G623R) (Q16288 32-839 G623R): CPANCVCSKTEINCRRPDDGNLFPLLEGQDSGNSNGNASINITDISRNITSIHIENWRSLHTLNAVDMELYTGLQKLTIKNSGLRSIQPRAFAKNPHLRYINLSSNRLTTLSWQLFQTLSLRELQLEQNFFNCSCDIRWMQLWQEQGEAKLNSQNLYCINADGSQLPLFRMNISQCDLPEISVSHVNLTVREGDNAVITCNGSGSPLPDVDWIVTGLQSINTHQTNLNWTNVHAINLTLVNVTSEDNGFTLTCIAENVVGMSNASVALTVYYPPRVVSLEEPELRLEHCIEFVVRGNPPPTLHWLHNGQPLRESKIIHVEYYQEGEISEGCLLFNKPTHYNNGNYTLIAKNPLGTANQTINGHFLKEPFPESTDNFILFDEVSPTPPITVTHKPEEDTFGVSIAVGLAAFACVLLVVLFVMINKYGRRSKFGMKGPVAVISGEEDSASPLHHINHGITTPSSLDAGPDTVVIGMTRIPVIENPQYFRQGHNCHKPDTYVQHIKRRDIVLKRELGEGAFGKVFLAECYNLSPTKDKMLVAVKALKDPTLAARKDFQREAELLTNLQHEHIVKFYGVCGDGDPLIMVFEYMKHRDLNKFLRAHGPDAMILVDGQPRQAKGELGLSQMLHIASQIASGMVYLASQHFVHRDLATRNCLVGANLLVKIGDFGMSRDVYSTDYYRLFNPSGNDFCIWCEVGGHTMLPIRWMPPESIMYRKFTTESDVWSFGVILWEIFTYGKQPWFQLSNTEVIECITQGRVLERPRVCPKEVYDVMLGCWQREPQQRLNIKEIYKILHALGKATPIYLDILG

IC50 (TRKC(G623R)) | microsomal CLint at 1 μM [1] | half-life at 1 μM [1] | % Remaining(45 min) [1] | IC50 (Ba/F3-LMNA-NTRK1) | IC50 (Ba/F3-TEL-NTRK3) | Compound
1.7 nM | 123 µL/min/mg | 11.3 min | 9.03% | 0.5 nM | 0.9 nM | O=C1N[C@H]2C[C@H](C2)Oc2ncc(F)cc2[C@H]2CCCN2c2ccn3ncc1c3n2 (stereo in doubt) [Positive control 1, reference compound]
1.5 nM | 22.8 µL/min/mg | 60.8 min | 51.22% | 1.6 nM | 5 nM | C[C@H]1Nc2nc3c(cnn3cc2F)C(=O)N[C@H]2C[C@H](C2)Oc2ncc(F)cc21 [Example 3, (3^1S,3^3S,6^3E,6^4E,8R)-1^5,6^6-difluoro-8-methyl-2-oxo-4,7-diaza-6(3,5)-pyrazolo[1,5-a]pyrimidine-1(2,3)-pyridine-3(1,3)-cyclobutylcyclooctane-5-one]
1.4 nM | 30 µL/min/mg | 46.3 min | 40.95% | 4.1 nM | 9.8 nM | C[C@H]1Nc2ccn3ncc(c3n2)C(=O)N[C@H]2C[C@H](C2)Oc2ncc(F)cc21 [Positive control 2, reference compound]

Compound | IC50 (TRKC(G623R)) | microsomal CLint at 1 μM [1] | half-life at 1 μM [1] | % Remaining(45 min) [1] | IC50 (Ba/F3-LMNA-NTRK1) | IC50 (Ba/F3-TEL-NTRK3)
O=C1N[C@H]2C[C@H](C2)Oc2ncc(F)cc2[C@H]2CCCN2c2nc3c1cnn3cc2F [Example 2, ((1^3E,1^4E,2^2R,5^1S,5^3S)-1^6,3^5-difluoro-4-oxa-6-aza-1(5,3)-pyrazolo[1,5-a]pyrimidine-3(3,2)-pyridine-2(1,2)-pyrrolidine-5(1,3)-cyclobutancycloheptan-7-one] | 1.8 nM | 214 µL/min/mg | 6.5 min | 2.37% | 0.7 nM | 1.7 nM
